# According to ChEMBL document CHEMBL4732150 (J Med Chem, 2021):
# Legend:
# [1] = (§1) Drug metabolism in Beagle dog liver microsomes assessed as 3,3-dideuterio-N-[4-methoxy-2-[methyl-[2-(methylamino)ethyl]amino]-5-[[4-[1-(trideuteriomethyl)indol-3-yl]pyrimidin-2-yl]amino]phenyl]prop-2-enamide metabolite formation preincubated for 10 mins under shaking condition followed by NADPH generating system addition and measured up to 60 mins by LC-MS/MS analysis; format: ADME, Canis lupus familiaris, Microsome; details: 1 h, time <=70 min
# [2] = Tmax in Sprague-Dawley rat at 2 mg/kg, IG administered as single dose and measured upto 24 hrs by LC-MS/MS analysis; format: ADME, organism-based; details: in vivo, po
# [3] = Toxicity in Balb/c nude mouse xenografted with human NCI-H1975 cells harboring EGFR L858R/T790M mutant assessed as change in body weight at 3 to 5 mg/kg, po QD administered via gavage for 24 days and measured twice weekly; format: organism-based; details: in vivo, 576 h, dose 3-5 mg/kg, time 24 day
# [4] = Half life in Sprague-Dawley rat liver microsomes preincubated for 10 mins under shaking condition followed by NADPH generating system addition and measured up to 20 mins by LC-MS/MS analysis
# [5] = Intrinsic clearance in cynomolgus monkey liver microsomes preincubated for 10 mins under shaking condition followed by NADPH generating system addition and measured up to 60 mins by LC-MS/MS analysis; format: ADME, Macaca fascicularis, Microsome; details: 1 h, time <=70 min
# [6] = as §1, with “CD1 mouse” for “Beagle dog”; format: ADME, Microsome; details: 1 h, time <=70 min
# [7] = as §1, with “cynomolgus monkey” for “Beagle dog”; format: ADME, Macaca fascicularis, Microsome; details: 1 h, time <=70 min
# [8] = (§2) Drug metabolism in CD1 mouse liver microsomes assessed as 3,3-dideuterio-N-[4-methoxy-2-(methylamino)-5-[[4-[1-(trideuteriomethyl)indol-3-yl]pyrimidin-2-yl]amino]phenyl]prop-2-enamide metabolite formation preincubated for 10 mins under shaking condition followed by NADPH generating system addition and measured up to 60 mins by LC-MS/MS analysis; format: ADME, Microsome; details: 1 h, time <=70 min
# [9] = as §2, with “Sprague-Dawley rat” for “CD1 mouse”; format: ADME, Microsome; details: 1 h, time <=70 min
# [10] = Cmax in Sprague-Dawley rat at 2 mg/kg, IG administered as single dose and measured upto 24 hrs by LC-MS/MS analysis; format: ADME, organism-based; set-up: route […], dose 2 mg/kg, time <=24; details: in vivo, po
# [11] = Cmax in Sprague-Dawley rat assessed as AZ5104-D2 at 6 mg/kg/day, IG administered for 7 consecutive days by LC-MS/MS analysis; format: ADME, organism-based; set-up: route […], dose 6 mg/kg/day, time 7 day; details: in vivo, po, 168 h
# [12] = Tmax in Sprague-Dawley rat assessed as AZ5104-D2 at 6 mg/kg/day, IG administered for 7 consecutive days by LC-MS/MS analysis; format: ADME, organism-based; details: in vivo, po, 168 h, time 7 day
# [13] = Oral bioavailability in Sprague-Dawley rat at 6 mg/kg/day, IG administered for 7 consecutive days by LC-MS/MS analysis; format: ADME, organism-based; details: in vivo, time 7 day
# [14] = Oral bioavailability in Sprague-Dawley rat at 12 mg/kg, IG administered as single dose and measured upto 24 hrs by LC-MS/MS analysis; format: ADME, organism-based; details: in vivo
# [15] = molecular target: T1, Cytochrome P450 2B6 (Homo sapiens, UniProt P20813); test: Inhibition of CYP2B6 in human liver microsomes using bupropion as substrate preincubated for 10 mins in presence of NADPH generating system followed by substrate addition and measured after 10 mins by LC-MS/MS analysis; format: ADME
# T1 sequence (P20813 whole entry): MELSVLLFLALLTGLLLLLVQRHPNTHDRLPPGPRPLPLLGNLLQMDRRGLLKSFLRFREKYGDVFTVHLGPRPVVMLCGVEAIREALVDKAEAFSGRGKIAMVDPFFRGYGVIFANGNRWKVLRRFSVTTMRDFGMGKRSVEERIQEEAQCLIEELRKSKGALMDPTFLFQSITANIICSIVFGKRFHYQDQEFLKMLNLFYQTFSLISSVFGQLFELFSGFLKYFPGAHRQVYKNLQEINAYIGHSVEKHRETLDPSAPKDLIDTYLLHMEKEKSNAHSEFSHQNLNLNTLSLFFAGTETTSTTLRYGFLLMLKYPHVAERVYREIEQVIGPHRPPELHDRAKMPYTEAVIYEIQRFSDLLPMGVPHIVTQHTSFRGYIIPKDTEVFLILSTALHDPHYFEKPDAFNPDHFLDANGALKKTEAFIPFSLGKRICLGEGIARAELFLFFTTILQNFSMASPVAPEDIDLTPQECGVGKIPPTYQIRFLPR
# [16] = molecular target: T2, Cytochrome P450 2C8 (Homo sapiens, UniProt P10632); test: Inhibition of CYP2C8 in human liver microsomes using amodiaquine as substrate preincubated for 10 mins in presence of NADPH generating system followed by substrate addition and measured after 10 mins by LC-MS/MS analysis; format: ADME
# T2 sequence (P10632 whole entry): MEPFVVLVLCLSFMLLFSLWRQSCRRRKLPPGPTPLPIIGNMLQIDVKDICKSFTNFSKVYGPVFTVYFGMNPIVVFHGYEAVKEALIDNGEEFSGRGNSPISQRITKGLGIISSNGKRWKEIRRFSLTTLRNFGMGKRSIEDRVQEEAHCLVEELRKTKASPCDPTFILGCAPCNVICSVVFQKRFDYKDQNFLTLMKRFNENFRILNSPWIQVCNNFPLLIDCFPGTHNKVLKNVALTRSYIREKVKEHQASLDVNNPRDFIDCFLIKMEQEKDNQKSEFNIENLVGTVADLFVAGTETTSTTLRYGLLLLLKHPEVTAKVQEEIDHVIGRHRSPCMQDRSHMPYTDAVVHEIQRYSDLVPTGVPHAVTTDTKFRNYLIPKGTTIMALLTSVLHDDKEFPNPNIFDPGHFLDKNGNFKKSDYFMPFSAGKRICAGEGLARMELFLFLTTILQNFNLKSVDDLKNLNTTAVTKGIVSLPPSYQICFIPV
# [17] = molecular target: Cytochrome P450 2C19 (Homo sapiens, UniProt P33261); test: Inhibition of CYP2C19 in human liver microsomes using S-mephenytoin as substrate preincubated for 10 mins in presence of NADPH generating system followed by substrate addition and measured after 20 mins by LC-MS/MS analysis; format: ADME
# Cytochrome P450 2C19, sequence (P33261 whole entry): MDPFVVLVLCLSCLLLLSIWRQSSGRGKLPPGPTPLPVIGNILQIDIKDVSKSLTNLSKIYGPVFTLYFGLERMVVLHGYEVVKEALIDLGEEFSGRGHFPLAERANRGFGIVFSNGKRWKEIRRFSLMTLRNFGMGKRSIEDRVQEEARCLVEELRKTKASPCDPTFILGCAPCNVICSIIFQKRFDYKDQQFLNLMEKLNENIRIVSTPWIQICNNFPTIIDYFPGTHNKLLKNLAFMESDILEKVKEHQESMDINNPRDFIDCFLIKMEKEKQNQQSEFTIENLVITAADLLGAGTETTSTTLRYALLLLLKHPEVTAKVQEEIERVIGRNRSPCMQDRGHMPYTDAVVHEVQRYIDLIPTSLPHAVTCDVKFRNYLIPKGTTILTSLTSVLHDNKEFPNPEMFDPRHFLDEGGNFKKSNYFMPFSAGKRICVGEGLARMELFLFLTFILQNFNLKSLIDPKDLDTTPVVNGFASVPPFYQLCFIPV
# [18] = in vivo; details: Sprague-Dawley, rat, plasma, po, 6 mg/kg
# [19] = in vivo; details: Sprague-Dawley, rat, po, 6 mg/kg
# [20] = in vivo; details: Sprague-Dawley, rat, po, 12 mg/kg
# [21] = in vitro; details: human, liver microsomes
smiles,measurement,setting,value
CS(=O)(=O)O.[2H]C([2H])=CC(=O)Nc1cc(Nc2nccc(-c3cn(C([2H])([2H])[2H])c4ccccc34)n2)c(OC)cc1N(C)CCN(C)C,Drug metabolism,[1],Metabolite_Detected
same,Tmax,[2],4.17 h
same,Activity,[3],Non-Toxic
same,half-life at 20 min,[4],0.577 h
same,CLint,[5],54.2 µL/min/mg
same,Drug metabolism,[6],Metabolite_Detected
same,Drug metabolism,[7],Metabolite_Detected
same,Drug metabolism,[8],Metabolite_Detected
same,Drug metabolism,[9],Metabolite_Detected
same,Cmax,[10],46.7 nM
same,Cmax,[11],0.395 nM
same,Tmax,[12],6.8 h
same,bioavailability,[13],29.6%
same,bioavailability,[14],43%
same,IC50,[15],> 50 µM
same,IC50,[16],29.3 µM
same,IC50,[17],43 µM
same,half-life at 168 h,[18],3.27 h
same,CL/F at 168 h,[19],325 mL/min/kg
same,CL/F at 24 h,[20],248 mL/min/kg
same,half-life at 1 h,[21],2.4 h
